For five molecules, IC50 results are on record in BindingDB's records for doi:10.1158/2159-8290.CD-13-1010 (Fred Hutchinson Cancer Research Center, 2014).

Molecules are shown by their SMILES.

Transmembrane protease serine 2, sequence (O15393 1-255 limits assumed): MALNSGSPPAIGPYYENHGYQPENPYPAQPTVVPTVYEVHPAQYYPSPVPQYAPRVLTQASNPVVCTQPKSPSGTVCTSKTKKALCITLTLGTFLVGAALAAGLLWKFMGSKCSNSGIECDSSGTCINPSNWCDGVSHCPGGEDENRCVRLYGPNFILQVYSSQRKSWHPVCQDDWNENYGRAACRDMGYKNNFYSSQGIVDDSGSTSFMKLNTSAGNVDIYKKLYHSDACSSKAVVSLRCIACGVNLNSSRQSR
Transmembrane protease serine 2, sequence (O15393 256-492 limits assumed): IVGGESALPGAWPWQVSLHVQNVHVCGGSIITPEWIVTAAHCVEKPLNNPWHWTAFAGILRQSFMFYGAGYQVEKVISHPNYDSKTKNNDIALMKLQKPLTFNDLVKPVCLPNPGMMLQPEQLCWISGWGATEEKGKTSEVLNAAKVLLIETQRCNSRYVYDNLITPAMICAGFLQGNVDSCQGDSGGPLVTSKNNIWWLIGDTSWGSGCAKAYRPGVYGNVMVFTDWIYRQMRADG

This experiment addresses Transmembrane protease serine 2 (Homo sapiens, UniProt O15393). Nature of the experiment: titration assay. An excerpt:
To identify inhibitors of TMPRSS2 that may be used directly in clinical studies or as lead compounds to develop targeted drugs, we screened several chemical libraries with active TMPRSS2 protease, the […] TMPRSS2 peptide substrate Boc-Gln-Ala-Arg-MCA, and compound concentrations of 5 μmol/L. We have used a similar approach to identify inhibitors of the hepsin protease.
In general, IC50 refers to the concentration that inhibits the measured activity by half. In the case of `COC(=O)Cc1cc(=O)oc2cc(O)ccc12`, the IC50 is 1.37 µM.
`COC(=O)c1ccc(OC(=O)c2cccs2)cc1` [0591-5329] displayed an IC50 of 0.93 µM.
Under `CCN1CCn2c3c(c4cc(Br)ccc42)CCCC31` (stereo not given) [4401-0077] stands 2.68 µM.
Under `CCn1c(-c2ccc(Cl)cc2)csc1=Nc1ccccc1` [8008-1235] stands 2.64 µM.
The figure for `CN(Cc1cc(Br)cc(Br)c1N)C1CCCCC1` [Bromhexine] is 0.75 µM.
